# In PubChem BioAssay AID1963872 (Molecular Pharmacology Branch, DTP, NCI, 2024):
# System: KRAS patient-derived spheroids with HUVEC/MSC, viability
# Assay: Anticancer human tumor 519858-162-T-J1-PDC patient-derived colon adenocarcinoma cell line growth inhibition [KRAS2]
# Conditions: for IC50: curve of first compound; for viability, T/C: stronger effect = lower value
# Description: Multicellular complex tumor spheroid response to RAS pathway inhibitors in combination with a targeted agents in patient-derived cell lines with oncogenic KRAS variants from multiple cancer types
# A high-throughput screen of multi-cell type tumor spheroids was designed to identify active combinations of targeted small molecules and KRAS pathway inhibitors. Complex spheroids include a stromal component modeled by human endothelial cells (HUVEC) and fibroblasts modeled by human mesenchymal stem cells (MSCs). The concentration ranges selected for each drug and investigational agent were based upon clinically achievable concentrations if the clinical Cmax of the agent was known.
# Compounds. The drugs and investigational agents: BI-3406 (NSC825286), BAY-293 (NSC824723), batoprotafib (TNO155; NSC825523), sotorasib (AMG 510; NSC818433), MRTX1257 (NSC819558), elimusertib (BAY 1895344; NSC800525), molibresib (GSK525762; NSC774829), temuterkib (LY3214996; NSC803410), venetoclax (NSC766270), alisertib (NSC759677), olaparib (NSC753686), talazoparib (NSC767125), erdafitinib (NSC781556), ipatasertib (NSC767898), cabozantinib (NSC761068), nintedanib (NSC756659), abemaciclib (NSC768073), docetaxel (NSC628503), trametinib (NSC758246), and sapanisertib (NSC764658) were obtained from the National Cancer Institute (NCI) Developmental Therapeutics Program Chemical Repository. The FDA-approved anticancer drug set is available from the Developmental Therapeutics Program. […] The stock solutions were prepared in dimethyl sulfoxide (DMSO, Sigma-Aldrich, St. Louis, MO, cat. D2650) at 800-fold the tested concentration and stored at -70 degrees C prior to their use. All drugs and investigational agents were tested over a range starting from a high concentration at or near the clinical Cmax and decreasing in half-log increments. If the clinical Cmax for an agent had not been determined, the highest concentration tested was 10 microM.
# Cell Culture. All cells were maintained in an incubator at 37 degrees C and 5% CO2 with 95% humidity. The PDC lines were cultured according to standard operating procedures established by the NCI PDMR (https://pdmr.cancer.gov/sops/default.htm). Briefly, all PDCs were thawed and cultured in Matrigel-coated flasks prepared with a working solution of 1X Ham's F-12 nutrient mix, without supplementation (Invitrogen, Waltham, MA, cat. 11765054), 100 U/mL penicillin-streptomycin (Invitrogen, cat. 15140122), and 2.5% Matrigel (Corning Inc., Corning, NY, cat. 354248) for the first three passages. All PDCs were cultured in complete DMEM/F-12 media containing advanced DMEM/F-12 (Invitrogen, cat. 12634028), 4.9% defined fetal bovine serum, heat inactivated (HyClone Laboratories Inc., Logan, UT, cat. SH30070.03HI), 389 ng/mL hydrocortisone (Sigma-Aldrich, cat. H4001), 9.7 ng/mL human EGF recombinant protein (Invitrogen, cat. PHG0313), 23.4 microg/mL adenine (Sigma-Aldrich, cat. A2786), 97.3 U/mL penicillin-streptomycin (Invitrogen, cat. 15140122), 1.9 mM L-glutamine (Invitrogen, cat. 25030081), and 9.7 microM Y-27632 dihydrochloride (Tocris Bioscience, Bristol, United Kingdom, cat. 1254). The PDCs were cultured in complete DMEM/F12 media without 9.7 microM Y-27632 dihydrochloride for at least two passages prior to the screen. The established cell line HOP-62 was cultured in RPMI 1640 medium, HEPES (Invitrogen, cat. 22400105) with 10% defined fetal bovine serum (HyClone Laboratories Inc., cat. SH30070.03) and 2 mM L-glutamine (Invitrogen, cat. 25030081). The pooled donor HUVEC were cultured in endothelial cell growth medium 2 (PromoCell, Heidelberg, Germany, cat. C-22011) and the hMSC were cultured in mesenchymal stem cell growth medium 2 (PromoCell, cat. C-28009). For all experiments, HUVEC and hMSC were used at passages </=5, while the malignant cell lines were used at passages </=15. […]
# [1] = second compound 0.1 µM, first compound 0.0316 µM
# [2] = second compound 0.1 µM, first compound 0.1 µM
# [3] = second compound 0.1 µM, first compound 0.316 µM
# [4] = second compound 0.1 µM, first compound 1 µM
# [5] = second compound 0.1 µM, first compound 3.16 µM
# [6] = second compound 0.316 µM, first compound 0.0316 µM
# [7] = second compound 0.316 µM, first compound 0.1 µM
# [8] = second compound 0.316 µM, first compound 0.316 µM
# [9] = second compound 0.316 µM, first compound 1 µM
# [10] = second compound 0.316 µM, first compound 3.16 µM
# [11] = second compound 1 µM, first compound 0.0316 µM
# [12] = second compound 1 µM, first compound 0.1 µM
# [13] = second compound 1 µM, first compound 0.316 µM
# [14] = second compound 1 µM, first compound 1 µM
# [15] = second compound 1 µM, first compound 3.16 µM
# [16] = second compound 3.16 µM, first compound 0.0316 µM
# [17] = second compound 3.16 µM, first compound 0.1 µM
# [18] = second compound 3.16 µM, first compound 0.316 µM
# [19] = second compound 3.16 µM, first compound 1 µM
# [20] = second compound 3.16 µM, first compound 3.16 µM
# [21] = second compound 10 µM, first compound 0.0316 µM
# [22] = second compound 10 µM, first compound 0.1 µM
# [23] = second compound 10 µM, first compound 0.316 µM
# [24] = second compound 10 µM, first compound 1 µM
# [25] = second compound 10 µM, first compound 3.16 µM
# 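Note: compound exposure lasted seven days before readout.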
# 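Throughout, for viability, T/C: 100% = DMSO vehicle control viability.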
SMILES,IC50 (second compound 0.1 µM) [nM],IC50 (second compound 0.316 µM) [nM],IC50 (second compound 1 µM) [nM],IC50 (second compound 3.16 µM) [nM],IC50 (second compound 10 µM) [nM],"viability, T/C [1] [%]","viability, T/C [2] [%]","viability, T/C [3] [%]","viability, T/C [4] [%]","viability, T/C [5] [%]","viability, T/C [6] [%]","viability, T/C [7] [%]","viability, T/C [8] [%]","viability, T/C [9] [%]","viability, T/C [10] [%]","viability, T/C [11] [%]","viability, T/C [12] [%]","viability, T/C [13] [%]","viability, T/C [14] [%]","viability, T/C [15] [%]",other results
CC(=O)OC12COC1CC(O)C1(C)C(=O)C(O)C3=C(C)C(OC(=O)C(O)C(NC(=O)OC(C)(C)C)c4ccccc4)CC(O)(C(OC(=O)c4ccccc4)C21)C3(C)C (stereo not given) + CC1OCC2(CCN(c3cnc(Sc4ccnc(N)c4Cl)c(N)n3)CC2)C1N,> 3160,> 3160,> 3160,261,205,71.1,89.4,109,79.5,80.7,84.8,90.3,55.5,63.4,51.5,71.2,104,81.8,83.3,101,"viability, T/C (second compound 0.1 µM, first compound 0.01 µM): 73.8%; viability, T/C (second compound 0.316 µM, first compound 0.01 µM): 79.9%; viability, T/C (second compound 1 µM, first compound 0.01 µM): 88.9%; viability, T/C (second compound 3.16 µM, first compound 0.01 µM): 59.6%; viability, T/C [16]: 77.2%; viability, T/C [17]: 64.7%; viability, T/C [18]: 46.9%; viability, T/C [19]: 28.5%; viability, T/C [20]: 36.3%; viability, T/C (second compound 10 µM, first compound 0.01 µM): 74.3%; viability, T/C [21]: 79.8%; viability, T/C [22]: 58.8%; viability, T/C [23]: 36.1%; viability, T/C [24]: 50.6%; viability, T/C [25]: 47.4%"
Cn1nccc1Nc1nccc(-c2cc3c(s2)C(C)(C)N(CCN2CCOCC2)C3=O)n1,–,–,–,–,–,–,–,–,–,–,–,–,–,–,–,–,–,–,–,–,"viability, T/C (compound 0.0316 µM): 95.4% [middle of 5 runs]; viability, T/C (compound 0.1 µM): 92.5% [middle of 5 runs]; viability, T/C (compound 0.316 µM): 87.5% [middle of 5 runs]; viability, T/C (compound 1 µM): 69.5% [middle of 5 runs]; viability, T/C (compound 10 µM): 31.8% [middle of 5 runs]"
Cn1nccc1Nc1nccc(-c2cc3c(s2)C(C)(C)N(CCN2CCOCC2)C3=O)n1 + CC1OCC2(CCN(c3cnc(Sc4ccnc(N)c4Cl)c(N)n3)CC2)C1N,3830,1740,341,188,144,70.9,71.8,60.6,64.3,54.4,66.6,52.6,69.5,62.7,36.2,50.2,53.7,48.6,41,28.1,"viability, T/C (second compound 0.1 µM, first compound 10 µM): 33%; viability, T/C (second compound 0.316 µM, first compound 10 µM): 25.1%; viability, T/C (second compound 1 µM, first compound 10 µM): 30.8%; viability, T/C [16]: 53.6%; viability, T/C [17]: 62.3%; viability, T/C [18]: 41.5%; viability, T/C [19]: 35.6%; viability, T/C [20]: 23.4%; viability, T/C (second compound 3.16 µM, first compound 10 µM): 28.1%; viability, T/C [21]: 47.5%; viability, T/C [22]: 63.1%; viability, T/C [23]: 38.5%; viability, T/C [24]: 36.8%; viability, T/C [25]: 26.5%; viability, T/C (second compound 10 µM, first compound 10 µM): 34.1%"
